The source of these data is patent US11413242B2, “Formulations of Tie-2 activators and methods of use thereof” (EyePoint Pharmaceuticals, Inc., priority 2019, dated 2022).

In assay [1] the test system is patients with diabetic macular edema. Description: Change in intraocular pressure from baseline, Compound 1 BID at varying doses, 28 Day EOT (FIG. 1). Type of assay: in vivo, human. To be noted: doses greater than 15 mg BID. The protocol:
The difference in IOP was determined at the end of the trial, which was 28 days after treatment began (28 Day EOT). Changes in IOP were determined both in the study eye and the fellow eye.

The nature of assay [2]: Intraocular pressure at Baseline and Months 1-3, Compound 1 with sham or RBZ, or placebo with RBZ (TABLE 1, FIG. 2). Type of assay: in vivo. The protocol:
The difference in IOP was determined relative to a pre-treatment baseline (Base) at months 1, 2, and 3 (M1-M3). Intraocular pressure was determined in the study eye in millimeters of mercury (mmHg).
The difference in IOP was determined relative to a pre-treatment Baseline at Months 1, 2, and 3. Intraocular pressure was determined in the study eye/fellow eye in mmHg.

Structures are written as SMILES.

Take `COC(=O)N[C@@H](Cc1ccccc1)C(=O)N[C@@H](Cc1ccc(NS(=O)(=O)O)cc1)c1csc(-c2cccs2)n1` [Compound 1]: in assay [1], the “effect on intraocular pressure (IOP) relative to pre-treatment baseline” value is recorded as “decreased IOP”. Further, the “IOP, fellow eye” value is recorded as 14.5 mmHg in assay [2] (Month 1), 14.3 mmHg in assay [2] (Month 2), 14.0 mmHg in assay [2] (Month 3) and 15.4 mmHg in assay [2] (pre-treatment Baseline). Besides, the “IOP, study eye” value in assay [2] (Month 1) was found to be 14.8 mmHg; in assay [2] (Month 2) it was 14.4 mmHg; in assay [2] (Month 3), 14.3 mmHg; in assay [2] (pre-treatment Baseline), 15.8 mmHg.
